Assay results: US20160120915A1, “METHODS FOR MANIPULATING IMMUNE RESPONSES BY ALTERING MICROBIOTA” (NEW YORK UNIVERSITY, priority 2013, published 2016)
Entries after “also recorded” stand apart in the source; their conditions may differ. Structures can show the parent of a compound that is named as a salt.

How the values were obtained:
NOD mice = assay: NOD PAT/STAT: type 1 diabetes incidence; type: in vivo, NOD/ShiLTj mice
From the text: Pregnant NOD/ShiLTj mice were randomized into 3 groups: Control, STAT, and PAT. Control mice were maintained on non-acidified sterilized water. STAT pregnant dams were given low dose penicillin beginning late in pregnancy until pups were 12 weeks of age. PAT mice were given 3 therapeutic doses of tylosin starting on day 10 of life. At 6 weeks of age, 13 male (5 control, 3 STAT, 5 PAT) and 15 female (5 per group) NOD mice were sacrificed for immune-phenotyping by flow cytometry and ileal gene expression analysis by microarray and qPCR. From 10 weeks of age to 31 weeks of age, mice were tested for diabetes weekly by blood glucose measurement and urinary glucose detection. Onset of diabetes was defined as two consecutive weeks of blood glucose >250 mg/dl and glucosuria.
For the NOD experiments, dams (and their litters) were divided into control, STAT, and PAT groups (FIG. 33). The control mice were given non-acidified sterilized water throughout the experiments, and for the 2 antibiotic groups (STAT and PAT), the antibiotics were dissolved in non-acidified sterilized water. For STAT, subtherapeutic penicillin VK (1 mg/kg/day) was added to the drinking water in late pregnancy (so that the pups pass through an altered vaginal microbiota), and then continued until day 84 of life. […] Mice were monitored for diabetes onset by glucosuria and blood glucose, starting at 10 weeks of age. […]

[1] = system: small intestinal lamina propria T-helper cells; assay: NOD: flow cytometry of Treg and Th17 cells in spleen and SI-LP; type: in vivo, NOD mice; conditions: for percent of SI-LP Th17 (CD4+RORγT+) cells / percent of SI-LP Treg (CD4+ FOXP3+) cells: 6-week old male NOD mice, vs controls
Procedure: After euthanasia of the mice by CO2 asphyxiation followed by cervical dislocation, the small intestines were dissected and immediately placed in cold calcium and magnesium-free DPBS, followed by removal of the mesenteric fat and Peyer's patches. The intestines were opened longitudinally and contents were removed by washing thoroughly with cold DPBS. The intestines were then cut into 2 cm pieces and treated with 10 ml 1 mM DTT/PBS, shaken at RT for 10 minutes to remove contaminating intraepithelial lymphocytes. Subsequently, the intestinal tissue was treated two times with 30 mM EDTA and 10 mM HEPES in PBS to remove epithelial cells. To isolate lamina propria lymphocytes, intestinal tissue was digested for 1.5 hours at 37° C. in digestion mix (0.5 mg/ml Collagenase/Dispase (Roche), 150 μg /ml DNase 1 (Sigma) in complete RPMI. Cells were passed through a 100 μm diameter nylon mesh filter (BD Bioscience). For further purification of leukocytes, intestinal cell suspensions were resuspended in 40% Percoll, under-layered with 80% Percoll (GE Healthcare Life Sciences) and centrifuged at 2,200 rpm for 25 minutes at room temperature. The leukocytes were collected at the interphase of the 40% 80% discontinuous Percoll gradient, then washed and re-suspended in DPBS for staining.
Cells were incubated with blue Live/DEAD fixable dye (Invitrogen) for 10 minutes at 4° C. to identify live cells. Intestinal leukocytes were phenotyped using the following antibodies: CD3-APC-Cy™7 (BD Biosciences), CD4− PE-Alexa Fluor 610 (Invitrogen), CD8− V500 (BD Biosciences), RORγt-PE (eBioscience), Foxp3-PE-Cy7 (eBioscience). Cells were first incubated with surface antibodies (each at 1:50 in FACS buffer) along with FC block (Anti-Mouse CD16/CD32, eBioscience) at 1:200 for 30 minutes at 4° C. Then the cells were fixed and permeabilized with Fix/Perm (eBioscience) and subsequently incubated with the nuclear antibodies in perm/wash buffer for 30 minutes at 4° C. (eBioscience).
All cells were acquired on a LSRII (BD Biosciences) and analyzed using FlowJo software (version 9.3.2; Tree Star Inc.).
Flow cytometry was performed on splenic and SI-LP cells from 6-week old male and female NOD mice. CD3 and CD4 surface stains and a live/dead stain were used to gate on live T-helper cells. Nuclear staining for FOXP3 and RORγT was performed to identify Treg and Th17 cells, respectively. By qPCR, SFB was below detectable limits in fecal specimens collected at 3 weeks and 6 weeks of age from all of the mice used in the above analysis. The range for SFB qPCR assay was from 10^2 to 10^6 copies of SFB. […] PAT decreased the percent of SI-LP Treg and Th17 cells in male, but not female NOD mice. C=controls, S=STAT, P=PAT. Statistical analysis was performed on each tissue separately, using the Kruskal-Wallis test followed by the Dunn's multiple comparison test, ** p≦0.01. […] This work provides evidence that PAT changes T-cell populations in the NOD mice that are developing T1D and insulitis earlier.

| Compound | type 1 diabetes expression (NOD mice; NOD mice, STAT-antibiotic-treated) | percent of SI-LP Th17 (CD4+RORγT+) cells [1] | percent of SI-LP Treg (CD4+ FOXP3+) cells [1] | development of T1D (diabetes incidence) (NOD mice; male NOD mice, onset = 2 consecutive weeks blood glucose >250 mg/dl and glucosuria, vs control, listed as PAT) | decrease of percent of SI-LP Treg and Th17 cells ([1]; 6-week old female NOD mice) |
| --- | --- | --- | --- | --- | --- |
| CC1(C)S[C@@H]2[C@H](NC(=O)COc3ccccc3)C(=O)N2[C@H]1C(=O)[O-].[K+] [STAT, penicillin VK] | no different from controls | intermediate | intermediate |  |  |
| CC[C@H]1OC(=O)C[C@@H](O)[C@H](C)[C@@H](O[C@@H]2O[C@H](C)[C@@H](O[C@H]3C[C@@](C)(O)[C@@H](O)[C@H](C)O3)[C@H](N(C)C)[C@H]2O)[C@@H](CC=O)C[C@@H](C)C(=O)/C=C/C(C)=C/[C@@H]1CO[C@@H]1O[C@H](C)[C@@H](O)[C@@H](OC)[C@H]1OC [Tylosin, Tylosin tartrate] |  | decreased | decreased | accelerated; also recorded: higher rate | not |
